# Reference: patent US10166225B2, “Method for treating osteoporosis” (Exelixis, Inc., priority 2011, dated 2019)
# Like-named read-outs stand apart in the source and are kept apart here.
# Experiments:
# human osteoclasts = assay: Osteoclast activity assay (resorption index CTX/TRACP 5b); type: cell-based
# Procedure: In the second part, the culture medium of human osteoclasts was replaced by new medium at day 7, and the formed mature osteoclasts were cultured for an additional 3 days, allowing them to resorb bone. Compound 1 was added into the culture medium at day 7. […] C-terminal cross-linked telopeptides of type I collagen (CTX) were measured in the culture medium collected at day 10 to quantitate bone resorption during days 7-10. […] was measured at day 7 to quantitate osteoclast number before Compound 1 was added. The CTX values were divided by the […] values, resulting as a resorption index that indicates mean osteoclast activity. […] The objective of this study was to investigate the effects of Compound 1 selected by the Sponsor on differentiation and activity of human osteoclasts and mouse osteoblasts in vitro. The effects on osteoclasts were studied using a model where bone marrow-derived human osteoclast precursor cells are cultured on bovine bone slices for 7 days in conditions favouring osteoclast differentiation, and allowed to differentiate into bone-resorbing osteoclasts. After completion of osteoclast differentiation at day 7, the culture medium was removed and new culture medium favouring osteoclast activity was added into the wells. The mature osteoclasts were then cultured for an additional 3 days, allowing them to resorb bone. In the osteoclast differentiation assay, the test compounds and a reference inhibitor osteoprotegerin (OPG) were added into cultures at day 0. In the osteoclast activity assay, the test compounds and a reference inhibitor E64 were added into cultures at day 7. Seven concentrations in 8 replicates were tested in both assays. Tartrate-resistant acid phosphatase 5b activity ([…]) was measured from the culture medium collected at day 7 as an index of the number of osteoclasts formed in each well during the differentiation period. C-terminal cross-linked telopeptides of type I collagen (CTX) was measured from the culture medium collected at day 10 to quantitate bone resorption during days 7-10. A human osteoclast culture system was developed for use in this study where CD34+ osteoclast precursor cells derived from human bone marrow (Poietics® Human Osteoclast Precursors, Lonza, Walkersville, USA) are cultured on bovine bone slices in the presence of appropriate growth factors, including M-CSF and RANK-ligand ([…] et al. 2009). The cells are first allowed to differentiate into mature bone-resorbing osteoclasts, and the formed osteoclasts are then allowed to resorb bone. The test and reference compounds are added into the cell cultures at the beginning of the differentiation and/or the resorption period, and their effects on the differentiation and/or resorbing activity of osteoclasts are determined. Secreted […] is determined from the culture medium after the differentiation period using a commercially available method (BoneTRAPÒ, IDS Ltd, Boldon, UK). Secreted […] describes accurately the number of osteoclasts formed in each well during the differentiation period. CTX is determined from the culture medium after the resorption period using a commercially available method (CrossLapsÒ for cultures, IDS Ltd, Boldon, UK). CTX describes accurately the amount of bone collagen degradation products released into the culture medium in each well during the resorption period. […] In this study, human bone marrow-derived CD34+ stem cells (10000 cells/well) were suspended in culture medium and allowed to attach to bovine bone slices in 96-well tissue culture plates. The culture medium (containing 10% FBS, OCP BulletKit® Lonza, Walkersville, USA) was supplemented with appropriate amounts of important growth factors favoring osteoclast differentiation and activity, including M-CSF (33 ng/ml, OCP BulletKit® Lonza, Walkersville, USA) and RANK-ligand (66 ng/ml, OCP BulletKit® Lonza, Walkersville, USA) in 200 μl of medium. The cells were incubated in a CO2 incubator in humidified atmosphere of 95% air and 5% carbon dioxide at 37° C. […]
# [1] = test system: KS483 mouse osteoprogenitor cells; assay: Osteoblast activity assay (PINP at day 11, calcium deposition at day 13); type: cell-based; conditions: for activity at 0.004 µM / activity at 0.012 µM / activity at 0.037 µM / activity at 0.11 µM / activity at 0.33 µM / activity at 1 µM / activity at 3 µM: Mus musculus, Osteoblast; for activity at 0.004 µM: 0.004 μM Compound 1; for activity at 0.012 µM: 0.012 μM Compound 1; for activity at 0.037 µM: 0.037 μM Compound 1; for activity at 0.11 µM: 0.11 μM Compound 1; for activity at 0.33 µM: 0.33 μM Compound 1; for activity at 1 µM: 1.0 μM Compound 1; for activity at 3 µM: 3.0 μM Compound 1
# Procedure: The effects on osteoblasts were studied using KS483 mouse osteoprogenitor cells that can be induced to differentiate into bone-forming osteoblasts. […] In the osteoblast differentiation assay, the cells were cultured for 8 days, after which the formed mature osteoblasts were quantitated by measuring the amount of intracellular alkaline phosphatase (ALP) activity. […] A culture system was established that can be used as an in vitro model for studying the effects of anabolic and estrogen-like compounds on osteoblast differentiation and activity. In this culture system mouse KS483 cells first proliferate and then differentiate into osteoblasts capable of forming mineralized bone nodules in the presence of ascorbic acid and ß-glycerophosphate (Fagerlund et al. 2009). The test and reference compounds are added into the cell cultures concomitantly with the medium change, and their effects on the differentiation and activity of osteoblasts are determined. Cellular ALP, a marker of osteoblast differentiation, is determined from the cell lysates as described earlier (Lowry et al. 1954). Secreted PINP, a marker of organic bone matrix formation, is determined from the culture medium using a commercially available method (Rat/Mouse PINP EIA, IDS Ltd, Boldon, UK). Calcium deposition, an index of inorganic bone matrix formation, is measured using a commercially available calcium assay (Roche Diagnostics). Mouse KS483 cells were cultured in T-75 tissue culture flasks in aMEM supplemented with 10% charcoal-stripped fetal bovine serum until 80-90% confluence. The cells were incubated in a CO2 incubator in humidified atmosphere of 95% air and 5% carbon dioxide at 37° C. After reaching 80-90% confluence, subcultures were prepared. Cells were removed from the flasks with trypsin treatment and counted. For induction of the maturation of osteoblasts and bone formation, the immature osteoblastic cells were plated in type I collagen-coated 96-well plates. The cells were cultured for 13 days with a supplement of ascorbic acid (50 μg/ml) and ß-glycerophosphate (5 mM), and half of the media was changed every 3-4 days. The test compound and control substance (E2) were added in the beginning of the culture period and when the medium was changed. Secreted PINP was measured from the culture medium at day 11 as a marker of organic bone matrix formation. The cultures were stopped at day 13 by removing the culture media from the wells and adding hydrochloric acid. Calcium deposited into the formed bone matrix was quantitated by using VICTOR2™ Multilabel Counter (PerkinElmer, Waltham, Mass., USA).
# [2] = patients with metastatic castration resistant prostate cancer, regardless of prior bisphosphonates; cited from earlier work
# [3] = 0.004, 0.012, 0.037 and 0.11 μM
# [4] = 264 h, read-out: PINP Activity at Day 11, Percent Activity (%) Compared to BL
# [5] = 312 h, read-out: Calcium Deposition at Day 13, Percent Activity (%) Compared to BL
compound,measurement,setting,value
"COc1cc2nccc(Oc3ccc(NC(=O)C4(C(=O)Nc5ccc(F)cc5)CC4)cc3)c2cc1OC [Compound 1, N-(4-{[6,7-bis(methyloxy)quinolin-4-yl]oxy}phenyl)-N′-(4-fluorophenyl)cyclopropane-1,1-dicarboxamide]",activity at 0.004 µM,"human osteoclasts; Homo sapiens, Osteoclast, 0.004 μM Compound 1, read-out: CTX at Day 10 and TRACP 5b Activity at Day 7 (CTX/TRACP 5b), Percent Activity (%) Compared to BL",84%
same,activity at 0.012 µM,"human osteoclasts; Homo sapiens, Osteoclast, 0.012 μM Compound 1, read-out: CTX at Day 10 and TRACP 5b Activity at Day 7 (CTX/TRACP 5b), Percent Activity (%) Compared to BL",104%
same,activity at 0.037 µM,"human osteoclasts; Homo sapiens, Osteoclast, 0.037 μM Compound 1, read-out: CTX at Day 10 and TRACP 5b Activity at Day 7 (CTX/TRACP 5b), Percent Activity (%) Compared to BL",115%
same,activity at 0.11 µM,"human osteoclasts; Homo sapiens, Osteoclast, 0.11 μM Compound 1, read-out: CTX at Day 10 and TRACP 5b Activity at Day 7 (CTX/TRACP 5b), Percent Activity (%) Compared to BL",107%
same,activity at 0.33 µM,"human osteoclasts; Homo sapiens, Osteoclast, 0.33 μM Compound 1, read-out: CTX at Day 10 and TRACP 5b Activity at Day 7 (CTX/TRACP 5b), Percent Activity (%) Compared to BL",102%
same,activity at 1 µM,"human osteoclasts; Homo sapiens, Osteoclast, 1.0 μM Compound 1, read-out: CTX at Day 10 and TRACP 5b Activity at Day 7 (CTX/TRACP 5b), Percent Activity (%) Compared to BL",111%
same,activity at 3 µM,"human osteoclasts; Homo sapiens, Osteoclast, 3.0 μM Compound 1, read-out: CTX at Day 10 and TRACP 5b Activity at Day 7 (CTX/TRACP 5b), Percent Activity (%) Compared to BL",85%
same,effect on osteoclast resorption activity,human osteoclasts; tested concentrations 0.004-3.0 μM,no effects
same,bone forming activity of osteoblasts,[1]; [3],dose-dependent stimulation
same,calcium values,[1]; [3],increased
same,PINP values,[1]; 0.012 and 0.037 μM,increased
same,PINP values,"[1]; 0.33, 1.0 and 3.0 μM",decreased
same,bone forming activity of osteoblasts,"[1]; 0.33, 1.0 and 3.0 μM",inhibitory effects
same,calcium values,"[1]; 0.33, 1.0 and 3.0 μM",decreased
same,activity at 0.004 µM,[1]; [4],117%
same,activity at 0.012 µM,[1]; [4],122%
same,activity at 0.037 µM,[1]; [4],135%
same,activity at 0.11 µM,[1]; [4],101%
same,activity at 0.33 µM,[1]; [4],73%
same,activity at 1 µM,[1]; [4],42%
same,activity at 3 µM,[1]; [4],21%
same,activity at 0.004 µM,[1]; [5],145%
same,activity at 0.012 µM,[1]; [5],167%
same,activity at 0.037 µM,[1]; [5],180%
same,activity at 0.11 µM,[1]; [5],144%
same,activity at 0.33 µM,[1]; [5],59%
same,activity at 1 µM,[1]; [5],12%
same,activity at 3 µM,[1]; [5],4%
same,plasma CTx,[2],decrease
